Values joined by “and” are separate entries in the source; they are usually repeats but may differ in a detail not shown here. Equal entries are not always repeated.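 Compound exposure: 48 hours, 5 concentrations, 96-well plates. Abbreviation: GI50, concentration required for 50% inhibition of growth. TGI: concentration producing complete growth inhibition.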
Columns and labels:
Assay in all cases: NCI anticancer screen, dose series, 48 h
OVCAR-3 ovarian = test system: OVCAR-3 ovarian
IGROV1 ovarian = test system: IGROV1 ovarian
TK-10 renal = test system: TK-10 renal
SF-268 CNS = test system: SF-268 CNS
HCC-2998 colon = test system: HCC-2998 colon
NCI-H522 lung = test system: NCI-H522 lung
MDA-MB-435 = test system: MDA-MB-435
OVCAR-8 ovarian = test system: OVCAR-8 ovarian
HOP-92 NSCLC = test system: HOP-92 NSCLC
SK-OV-3 ovarian = test system: SK-OV-3 ovarian

SMILES	TGI (OVCAR-3 ovarian)	TGI (IGROV1 ovarian)	TGI (TK-10 renal)	TGI (SF-268 CNS)	TGI (HCC-2998 colon)	TGI (NCI-H522 lung)	TGI (MDA-MB-435)	TGI (OVCAR-8 ovarian)	TGI (HOP-92 NSCLC)	TGI (SK-OV-3 ovarian)	GI50 (OVCAR-3 ovarian)	GI50 (IGROV1 ovarian)	GI50 (TK-10 renal)	GI50 (SF-268 CNS)	GI50 (HCC-2998 colon)	GI50 (NCI-H522 lung)	GI50 (MDA-MB-435)	GI50 (OVCAR-8 ovarian)	GI50 (HOP-92 NSCLC)	GI50 (SK-OV-3 ovarian)
CS(=O)c1cc(=O)c2ccccc2s1 (stereo unspecified)	4.47 µM	34.2 µM	12.7 µM	24.5 µM	16.6 µM	3.07 µM	19 µM	8.09 µM	6.7 µM	39.4 µM										
Nc1ncnc2c1ncn2C1SC(CO)C(O)C1O (stereo unspecified)	58.3 µM	> 100 µM	> 100 µM	96.6 µM	34.5 µM	> 100 µM	50.2 µM	23.6 µM	52.4 µM	59.6 µM	24.5 µM	> 100 µM	60.9 µM	27.1 µM	11.9 µM	40 µM	18.1 µM	4 µM	13.6 µM	17.3 µM
C=C(C)[C@@H]1CC[C@]2(C(=O)OC)CC[C@]3(C)[C@H](CC[C@@H]4[C@@]5(C)CC/C(=N\OCCC(=NCCC#N)NOCCC#N)C(C)(C)[C@@H]5CC[C@]43C)[C@@H]12	15.8 µM	> 50 µM	> 50 µM	> 50 µM	> 50 µM	> 50 µM	> 50 µM	> 50 µM	35 µM	> 50 µM	5.17 µM	14.9 µM	13.8 µM	11.4 µM	13.8 µM	8.34 µM	9.7 µM	9.66 µM	6.9 µM	10.8 µM
COc1cc(-c2nn(-c3cccc(NC(=O)NCCNC(=O)c4ccccc4)c3)cc2-c2ccncc2)ccc1Cl	> 100 µM	> 100 µM	63.7 µM	> 100 µM	> 100 µM	7.37 µM	9.29 µM	41.7 µM	> 100 µM	> 100 µM	2.93 µM	4.68 µM	6.09 µM	4.27 µM	5.42 µM	1.79 µM	2.41 µM	0.576 µM	2.63 µM	4.21 µM
CC(=O)Nc1ccc(S(=O)(=O)N2C(=O)CCC2C(=O)Nc2ccccc2)cc1 (stereo unspecified)	11.8 µM	26.9 µM	13.5 µM	23.3 µM	5.62 µM	6.27 µM	17.3 µM	19 µM	5.41 µM	18.8 µM	1.75 µM	2.32 µM	1.91 µM	3.82 µM	0.645 µM	0.491 µM	0.582 µM	2.23 µM	1.48 µM	2.87 µM
CC1(C)CCC(c2ccc(Cl)cc2)=C(CN2CCN(c3ccc(C(=O)NS(=O)(=O)c4ccc(N[C@H](CCN5CCOCC5)CSc5ccccc5)c(S(=O)(=O)C(F)(F)F)c4)cc3)CC2)C1	3 µM	5.25 µM	2.67 µM	5.55 µM	1.67 µM	5.03 µM	3.17 µM	5.18 µM	0.245 µM	2.68 µM	1.62 µM	2.37 µM	1.28 µM	2.31 µM	0.343 µM	1.89 µM	1.64 µM	2.19 µM	0.0455 µM	1.28 µM
CN1CC[C@H](N(C)C(=O)N2CC(c3cc(F)ccc3F)=C[C@@]2(CO)c2ccccc2)[C@H](F)C1		> 100 µM	> 100 µM	> 100 µM	13.4 µM		0.00772 µM	> 100 µM	79.7 µM	> 100 µM	0.0196 µM		27.7 µM	0.0279 µM	0.037 µM	0.00871 µM	0.00258 µM	0.058 µM	0.143 µM	0.00588 µM
Nc1nc(-c2ccccn2)c(-c2ccc3ncccc3n2)s1	> 25 µM	> 25 µM	> 25 µM	> 25 µM	> 25 µM	> 25 µM	> 25 µM	> 25 µM	> 25 µM	> 25 µM	> 25 µM	> 25 µM	> 25 µM	> 25 µM	> 25 µM	> 25 µM	> 25 µM	> 25 µM	13.3 µM	> 25 µM
Nc1c2ccccc2nc2ccccc12	6.77 µM and 8.91 µM	6.18 µM and 14 µM		4.45 µM and 19.7 µM	3.93 µM	2.63 µM and 10.1 µM	6.32 µM and 13.7 µM	5.14 µM and 34.3 µM	4.82 µM and 23.2 µM	9.21 µM and 22 µM	2.2 µM and 2.91 µM	2.12 µM and 3.34 µM	2.07 µM and 4.61 µM	1.63 µM and 3.47 µM	1.81 µM	1.15 µM and 3.03 µM	2.23 µM and 3.46 µM	0.626 µM and 3.53 µM	1.63 µM and 3.71 µM	2.18 µM and 3.22 µM
N#CSc1c[nH]c2cccc(/C=C/C(=O)/C=C(O)/C=C/c3cccc4[nH]cc(SC#N)c34)c12	1.09 µM	1.58 µM	2.51 µM	1.86 µM	4.56 µM	0.47 µM	1.42 µM	> 17.5 µM	1.27 µM	5.23 µM	0.225 µM	0.46 µM	0.756 µM	0.528 µM	1.2 µM	0.093 µM	0.542 µM	0.369 µM	0.51 µM	1.32 µM
O=C1Nc2ccc(I)cc2/C1=C/c1cc(Br)c(O)c(Br)c1	> 20.6 µM and 36.9 µM	> 75.5 µM	> 92.3 µM	> 25 µM and 68.8 µM	> 25 µM and 33.6 µM	> 25 µM and 42.3 µM	> 100 µM	> 96.5 µM	54.7 µM	> 25 µM and 47.5 µM	> 12.5 µM and 16.7 µM	> 25 µM and 27.8 µM	> 25 µM and 31.1 µM	> 21.9 µM and 18.2 µM	24.5 µM and 16.3 µM	16.2 µM and 16.5 µM	15 µM and 13.2 µM	> 25 µM and 23.8 µM	15.6 µM	> 25 µM and 17.9 µM
Fc1cnccc1-c1nc2ccc3[nH]ncc3c2c2c1CCCC2	10.9 µM	11.2 µM	> 100 µM	9.82 µM	> 100 µM	8.76 µM	> 100 µM	> 100 µM	9.97 µM	3.66 µM	2.46 µM	0.688 µM	0.605 µM	1.99 µM	3.2 µM	1.31 µM	1.25 µM	2.1 µM	1.62 µM	0.342 µM
CCN(CC)CCCC(C)Nc1ccnc2cc(OC)ccc12 (stereo unspecified)	67.5 µM	79.3 µM	40.6 µM	> 100 µM	28.4 µM	37.4 µM	40.5 µM	71.1 µM	26.7 µM	52.3 µM	23.7 µM	27.3 µM	17.7 µM	> 100 µM	14.7 µM	17.9 µM	19.9 µM	24.3 µM	9.25 µM	24.9 µM
O=C(/C=C/c1ccccc1)c1ccccn1	26.8 µM and 43.3 µM	22.8 µM and 37.9 µM	31 µM and 36.9 µM	49.8 µM and 43.9 µM	26.7 µM and 35.8 µM	48.2 µM and 33.2 µM	44.7 µM and 88.7 µM	34.6 µM and > 100 µM	53 µM	67 µM and > 100 µM				18.8 µM and 2.66 µM						
Nc1nc(N)c2nc(CNc3ccc(C(=O)NC(CCC(=O)O)C(=O)O)cc3)cnc2n1 (stereo unspecified)	> 100 µM	> 100 µM	> 100 µM	> 100 µM	> 100 µM	> 100 µM	> 100 µM	> 100 µM	> 100 µM	> 100 µM	0.0695 µM and 0.0295 µM	0.0651 µM and < 0.01 µM	0.0736 µM	0.02 µM and < 0.01 µM	0.0329 µM and < 0.01 µM	0.0446 µM and 0.0815 µM	< 0.01 µM	< 0.01 µM	> 100 µM	0.0755 µM and < 0.01 µM
N#CCC1CCN(c2nc(Nc3ccc(N4CCC(O)CC4)cc3)c3c(=O)[nH]ncc3n2)CC1	> 100 µM	2.95 µM	> 100 µM	> 100 µM	> 100 µM	> 100 µM	> 100 µM	> 100 µM	> 100 µM	1.88 µM		0.266 µM	0.306 µM	1.2 µM	1.71 µM	> 100 µM	0.628 µM	8.08 µM	0.239 µM	0.267 µM
O=C(CNC(=O)c1cccc2ccccc12)Nc1ccccc1Oc1ccc(O)cc1	> 25 µM	> 25 µM	> 25 µM	> 25 µM	> 25 µM	> 25 µM	0.687 µM	> 25 µM	> 25 µM	> 25 µM	0.744 µM	2.33 µM	16.9 µM	3.31 µM	8.98 µM	0.852 µM	0.161 µM	1.31 µM	> 25 µM	1.59 µM
NC1=Nc2cc(OCCCCN3Cc4ccccc4C3)c(OCC3CC3)cc2C12CCCC2	3.16 µM	2.98 µM	3.45 µM	6.42 µM	3.07 µM	3.84 µM	2.99 µM	4.02 µM	2.71 µM	3.9 µM	1.49 µM	1.42 µM	1.75 µM	1.78 µM	1.57 µM	1.86 µM	1.59 µM	1.8 µM	0.873 µM	1.89 µM

From PubChem BioAssay (NCI)
